From article PMC11047580, “Design and Synthesis of Novel Amino and Acetamidoaurones with Antimicrobial Activities” (Antibiotics, 2024)
≈ marks a conversion by molar mass, not a printed value.

Tests used:
[1] = system: Bacillus anthracis (CNR-charbon_04022); assay: microbe, parasite or virus in culture; assay type: cell-based; conditions: read-out: MIC Bacillus anthracis (CNR-charbon_04022)
[2] = system: Streptococcus pyogenes (DSM20565); assay: MIC assay; assay type: cell-based; conditions: two-fold serial dilutions in liquid media, n = 2–3
[3] = system: Propionibacterium acnes (ATCC6919); assay: MIC assay; assay type: cell-based; conditions: Cutibacterium acnes, two-fold serial dilutions in liquid media, n = 2–3
[4] = Cytotoxic assay (resazurin); conditions: human, Caco-2
[5] = system: Klebsiella pneumonia (DSM26371); assay: MIC assay; assay type: cell-based; conditions: two-fold serial dilutions in liquid media, n = 2–3
[6] = system: Listeria monocytogenes (DSM20600); assay: MIC assay; assay type: cell-based; conditions: two-fold serial dilutions in liquid media, n = 2–3
[7] = system: Salmonella enterica (CIP80.39); assay: MIC assay; assay type: cell-based; conditions: two-fold serial dilutions in liquid media, n = 2–3
[8] = Cytotoxic assay, summary over the six human cell types; conditions: human, 48 h exposure
[9] = system: M. smegmatis ATCC700084; assay: MIC assay (REMA); assay type: cell-based, Mycobacterium smegmatis; conditions: Mycolicibacterium smegmatis, ATCC700084, REMA microdilution, n = 2–3
[10] = system: MRSA (ATCCBAA-1717); assay: MIC assay; assay type: cell-based, methicillin-resistant S. aureus; conditions: Staphylococcus aureus, read-out: MIC MRSA (ATCCBAA-1717)
[11] = Cytotoxic assay (resazurin); conditions: human, BEAS-2B normal lung epithelial cells
[12] = system: P. aeruginosa ATCC9027; assay: MIC assay; assay type: cell-based, Pseudomonas aeruginosa; conditions: two-fold serial dilutions in liquid media, n = 2–3
[13] = system: Enterococcus faecalis (DSM2570); assay: MIC assay; assay type: cell-based; conditions: two-fold serial dilutions in liquid media, n = 2–3
[14] = system: Clostridium perfringens (ATCC13124); assay: microbe, parasite or virus in culture; assay type: cell-based; conditions: ATCC13124, read-out: MIC Clostridium perfringens (ATCC13124)
[15] = Cytotoxic assay (resazurin); conditions: human, A498 kidney epithelial cells
[16] = system: E. coli ATCC8739; assay: MIC assay; assay type: cell-based, Escherichia coli; conditions: Escherichia coli, ATCC8739; two-fold serial dilutions in liquid media; n = 2–3
[17] = system: Candida glabrata (DSM11226); assay: MIC assay; assay type: cell-based; conditions: Nakaseomyces glabratus, two-fold serial dilutions in liquid media, n = 2–3
[18] = system: Enterococcus faecium (DSM20477); assay: MIC assay; assay type: cell-based; conditions: two-fold serial dilutions in liquid media, n = 2–3
[19] = system: Acinetobacter baumannii (DSM30007); assay: MIC assay; assay type: cell-based; conditions: two-fold serial dilutions in liquid media, n = 2–3
[20] = system: Enterobacter cloacae (DSM30054); assay: MIC assay; assay type: cell-based; conditions: two-fold serial dilutions in liquid media, n = 2–3
[21] = system: Fusarium oxysporum (DSM62316); assay: MIC assay; assay type: cell-based; conditions: two-fold serial dilutions in liquid media, n = 2–3
[22] = Cytotoxic assay (resazurin); conditions: human, HaCaT normal epidermal keratinocytes
[23] = system: Aspergillus fumigatus (DSM819); assay: MIC assay; assay type: cell-based; conditions: two-fold serial dilutions in liquid media, n = 2–3
[24] = system: Vibrio alginolyticus (DSM2171); assay: MIC assay; assay type: cell-based; conditions: two-fold serial dilutions in liquid media, n = 2–3
[25] = system: B. subtilis ATCC6633; assay: MIC assay; assay type: cell-based, Bacillus subtilis; conditions: Bacillus subtilis, ATCC6633; two-fold serial dilutions in liquid media; n = 2–3
[26] = system: Mycobacterium tuberculosis H37Rv (mc^26230); assay: MIC assay (REMA); assay type: cell-based; conditions: REMA microdilution, n = 2–3
[27] = system: Mycobacterium abscessus R(CIP 104536^T); assay: MIC assay (REMA); assay type: cell-based; conditions: REMA microdilution, n = 2–3
[28] = system: Yersinia pestis (NR-641); assay: microbe, parasite or virus in culture; assay type: cell-based; conditions: read-out: MIC Yersinia pestis (NR-641)
[29] = system: Bacillus cereus (DSM31); assay: MIC assay; assay type: cell-based; conditions: two-fold serial dilutions in liquid media, n = 2–3
[30] = system: Candida auris (DSM21092); assay: MIC assay; assay type: cell-based; conditions: Candidozyma auris, two-fold serial dilutions in liquid media, n = 2–3
[31] = system: Mycobacterium abscessus S (CIP 104536^T); assay: MIC assay (REMA); assay type: cell-based; conditions: REMA microdilution, n = 2–3
[32] = system: Shigella flexneri (ATCC12022); assay: MIC assay; assay type: cell-based; conditions: two-fold serial dilutions in liquid media, n = 2–3
[33] = system: Clostridium difficile (DSM1296); assay: MIC assay; assay type: cell-based; conditions: Clostridioides difficile, two-fold serial dilutions in liquid media, n = 2–3
[34] = system: Brucella melitensis (NR-256); assay: microbe, parasite or virus in culture; assay type: cell-based; conditions: read-out: MIC Brucella melitensis (NR-256)
[35] = system: Cryptococcus neoformans (DSM11959); assay: MIC assay; assay type: cell-based; conditions: two-fold serial dilutions in liquid media, n = 2–3
[36] = system: C. albicans DSM10697; assay: MIC assay; assay type: cell-based, Candida albicans; conditions: Candida albicans, DSM10697; two-fold serial dilutions in liquid media; n = 2–3
[37] = Cytotoxic assay (resazurin); conditions: human, HepG2 liver cells
[38] = system: Francisella tularensis (NR-643); assay: microbe, parasite or virus in culture; assay type: cell-based; conditions: read-out: MIC Francisella tularensis (NR-643)
[39] = system: Clostridium botulinum (DSM1985); assay: microbe, parasite or virus in culture; assay type: cell-based; conditions: DSM1985, read-out: MIC Clostridium botulinum (DSM1985)
[40] = system: S. aureus ATCC6538P; assay: MIC assay; assay type: cell-based, Staphylococcus aureus; conditions: Staphylococcus aureus, ATCC6538P; two-fold serial dilutions in liquid media; n = 2–3
[41] = Cytotoxic assay (resazurin); conditions: human, IMR-90 normal lung fibroblasts
[42] = system: Candida tropicalis (DSM9419); assay: MIC assay; assay type: cell-based; conditions: two-fold serial dilutions in liquid media, n = 2–3
[43] = system: Helicobacter pylori (ATCC43504); assay: MIC assay; assay type: cell-based; conditions: two-fold serial dilutions in liquid media, n = 2–3

Question: Which results are given for CC(=O)Nc1ccc2c(c1)C(=O)/C(=C/c1ccc(OC(C)C)cc1)O2 [Compound 20, (Z)-N-(2-(4-isopropoxybenzylidene)-3-oxo-2,3-dihydrobenzofuran-5-yl)acetamide]?
Answer: MIC [1]: 6.25 µM (≈ 2.11 µg/mL); MIC [2]: 50 µM (≈ 16.9 µg/mL); MIC [3]: > 100 µM; CC50 at 48 h [4]: 186 µM; IC50 at 48 h [4]: 186 µM; MIC ([5]; Klebsiella pneumoniae, DSM26371): > 100 µM; MIC [5]: >100 µM; MIC [6]: 6.25 µM (≈ 2.11 µg/mL); MIC [7]: 50 µM (≈ 16.9 µg/mL); CC50 at 48 h ([8]; Highest CC50, highest of the six human cell types): > 500 µM; CC50 at 48 h ([8]; Lowest CC50, lowest of the six human cell types): 126 µM; MIC [9]: 50 µM (≈ 16.9 µg/mL); MIC [10]: 25 µM (≈ 8.43 µg/mL); CC50 at 48 h [11]: 126 µM; IC50 at 48 h [11]: 126 µM; MIC ([12]; Pseudomonas aeruginosa, ATCC9027): > 100 µM; MIC [12]: >100 µM; MIC [13]: 100 µM (≈ 33.7 µg/mL); MIC [14]: > 100 µM; CC50 at 48 h [15]: 453 µM; IC50 at 48 h [15]: 453 µM; MIC [16]: 25 µM (≈ 8.43 µg/mL); MIC [17]: 50 µM (≈ 16.9 µg/mL); MIC [18]: 25 µM (≈ 8.43 µg/mL); MIC [19]: 25 µM (≈ 8.43 µg/mL); MIC ([20]; Enterobacter cloacae, DSM30054): > 100 µM; MIC [20]: >100 µM; MIC [21]: 25 µM (≈ 8.43 µg/mL); CC50 at 48 h [22]: 323 µM; IC50 at 48 h [22]: 323 µM; MIC ([23]; Aspergillus fumigatus, DSM819): > 100 µM; MIC Aspergillus fumigatus (DSM819) [23]: inactive; MIC [24]: 50 µM (≈ 16.9 µg/mL); MIC [25]: 25 µM (≈ 8.43 µg/mL); MIC ([26]; Mycobacterium tuberculosis, H37RV): > 100 µM; MIC Mycobacterium tuberculosis H37Rv (mc^26230) [26]: inactive; MIC ([27]; Mycobacteroides abscessus, CIP104536, R morphotype): > 100 µM; MIC Mycobacterium abscessus R(CIP 104536^T) ([27]; R morphotype): inactive; MIC [28]: 12.5 µM (≈ 4.22 µg/mL); MIC [29]: 25 µM (≈ 8.43 µg/mL); MIC [30]: 12.5 µM (≈ 4.22 µg/mL); MIC ([31]; Mycobacteroides abscessus, CIP104536, S morphotype): > 100 µM; MIC Mycobacterium abscessus S (CIP 104536^T) ([31]; S morphotype): inactive; MIC [32]: 50 µM (≈ 16.9 µg/mL); MIC [33]: 3.12 µM (≈ 1.05 µg/mL); MIC [34]: 12.5 µM (≈ 4.22 µg/mL); MIC [35]: 25 µM (≈ 8.43 µg/mL); MIC [36]: 50 µM (≈ 16.9 µg/mL); CC50 at 48 h [37]: > 500 µM; IC50 at 48 h [37]: > 500 µM; MIC [38]: 12.5 µM (≈ 4.22 µg/mL); MIC [39]: 3.12 µM (≈ 1.05 µg/mL); MIC [40]: 12.5 µM (≈ 4.22 µg/mL); CC50 at 48 h [41]: 438 µM; IC50 at 48 h [41]: 438 µM; MIC [42]: 100 µM (≈ 33.7 µg/mL); MIC [43]: 12.5 µM (≈ 4.22 µg/mL)
